Results published in ChEMBL document CHEMBL1123926, “Synthesis and neuroleptic activity of a series of 1-[1-(benzo-1,4-dioxan-2-ylmethyl)-4-piperidinyl]benzim idazolone derivatives” (J Med Chem, 1987).

Tests used:
[1] = molecular target: Dopamine receptor (Mus musculus) (UniProt P51436+Q8BLD9+Q61616+P61168+P30728); experiment: Neuroleptic activity determined by its inhibitory effect on apomorphine-induced climbing behavior in mice by intraperitoneal administration; type: functional, organism-based
[2] = Therapeutic ratio of ED50 of catalepsy in rats to ED50 of climbing in mouse; type: ADME, organism-based; conditions: rat and mouse, in vivo
Rattus norvegicus = organism: Rattus norvegicus; experiment: Cataleptogenic activity was evaluated for the compound as the 50% effective dose required to induce cataleptic effect in rats; type: functional
Mus musculus [3] = experiment: Neuroleptic activity determined by its inhibitory effect on apomorphine-induced climbing behavior in mice by intraperitoneal administration. Range is 0.007-0.250; type: functional; conditions: ip
D(2) dopamine receptor [4] = molecular target: T1, D(2) dopamine receptor (Bos taurus, UniProt P20288); experiment: Displacement of [3H]spiroperidol from bovine caudate nucleus membrane Dopamine receptor D2
Mus musculus [5] = experiment: Neuroleptic activity determined by its inhibitory effect on apomorphine-induced climbing behavior in mice by intraperitoneal administration. Range is 0.03-0.064; type: functional; conditions: ip
Mus musculus [6] = organism: Mus musculus; experiment: animal or person; conditions: ip
Description: Neuroleptic activity determined by its inhibitory effect on apomorphine-induced climbing behavior in mice by intraperitoneal administration in experiment 2 Range is 0.05-0.17

Mus musculus [7] = experiment: Neuroleptic activity determined by its inhibitory effect on apomorphine-induced climbing behavior in mice by peroral administration in experiment 1.Range is 0.02-0.42; type: functional; conditions: po
Mus musculus [8] = experiment: Neuroleptic activity determined by its inhibitory effect on apomorphine-induced climbing behavior in mice by intraperitoneal administration in experiment 2. Range is 0.11-0.41; type: functional; conditions: ip
Mus musculus [9] = experiment: Neuroleptic activity determined by its inhibitory effect on apomorphine-induced climbing behavior in mice by intraperitoneal administration. Range is 0.071-0.206; type: functional; conditions: ip
Mus musculus [10] = experiment: Neuroleptic activity determined by its inhibitory effect on apomorphine-induced climbing behavior in mice by intraperitoneal administration. Range is 0.040-0.075; type: functional; conditions: ip
Mus musculus [11] = experiment: Neuroleptic activity determined by its inhibitory effect on apomorphine-induced climbing behavior in mice by intraperitoneal administration. Range is between 0.009-0.037; type: functional; conditions: ip
Mus musculus [12] = experiment: Neuroleptic activity determined by its inhibitory effect on apomorphine-induced climbing behavior in mice by peroral administration; type: functional; conditions: po
Mus musculus [13] = experiment: Neuroleptic activity determined by its inhibitory effect on apomorphine-induced climbing behavior in mice by intraperitoneal administration. Range is 0.007-0.029; type: functional; conditions: ip
Mus musculus [14] = experiment: Neuroleptic activity determined by its inhibitory effect on apomorphine-induced climbing behavior in mice by intraperitoneal administration. Range is 0.037-0.256; type: functional; conditions: ip
[15] = Therapeutic ratio of ED50 of catalepsy to ED50 of climbing in […]; type: ADME
D(2) dopamine receptor [16] = molecular target: T1, D(2) dopamine receptor; experiment: Binding affinity towards dopamine receptor D2 was determined by displacement of [3H]spiroperidol from bovine nucleus caudate membranes.
Mus musculus [17] = experiment: Neuroleptic activity determined by its inhibitory effect on apomorphine-induced climbing behavior in mice by intraperitoneal administration. Range is 0.008-0.766; type: functional; conditions: ip
Mus musculus [18] = experiment: Neuroleptic activity determined by its inhibitory effect on apomorphine-induced climbing behavior in mice by intraperitoneal administration. Range is between 0.035-0.192; type: functional; conditions: ip
Mus musculus [19] = experiment: Neuroleptic activity determined by its inhibitory effect on apomorphine-induced climbing behavior in mice by intraperitoneal administration. Range is between 0.0033-0.278; type: functional; conditions: ip
Mus musculus [20] = experiment: Neuroleptic activity determined by its inhibitory effect on apomorphine-induced climbing behavior in mice by intraperitoneal administration. Range is 0.009-0.109; type: functional; conditions: ip
Mus musculus [21] = experiment: Neuroleptic activity determined by its inhibitory effect on apomorphine-induced climbing behavior in mice by intraperitoneal administration. Range is 0.019-0.092; type: functional; conditions: ip

T1 sequence (P20288 whole entry): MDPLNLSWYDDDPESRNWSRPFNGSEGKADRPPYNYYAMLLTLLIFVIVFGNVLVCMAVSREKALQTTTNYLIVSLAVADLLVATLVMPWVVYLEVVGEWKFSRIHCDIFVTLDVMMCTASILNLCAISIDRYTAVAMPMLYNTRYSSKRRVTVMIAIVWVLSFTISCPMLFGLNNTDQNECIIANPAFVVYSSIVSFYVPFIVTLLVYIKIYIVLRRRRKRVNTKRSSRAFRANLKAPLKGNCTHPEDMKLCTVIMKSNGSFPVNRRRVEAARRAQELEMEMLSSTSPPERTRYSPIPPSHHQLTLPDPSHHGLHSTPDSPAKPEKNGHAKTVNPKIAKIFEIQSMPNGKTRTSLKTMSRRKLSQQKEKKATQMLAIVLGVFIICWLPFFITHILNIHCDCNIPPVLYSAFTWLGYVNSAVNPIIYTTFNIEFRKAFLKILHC

Compound | ED50 [1] [mg/kg] | ED50 (Rattus norvegicus) [mg/kg] | other results
Cc1ccc2c(c1)nc(O)n2C1CCN(CC2COc3cc(F)ccc3O2)CC1 (configuration not stated) | 0.5 |  | 
Oc1nc2ccccc2n1C1CCN(CC2COc3ccccc3O2)CC1 (configuration not stated) | 0.7 |  | 
Cc1ccc2c(c1)nc(O)n2C1CCN(CC2COc3ccccc3O2)CC1 (configuration not stated) |  | 40 | selectivity ratio [2]: 3080; ED50 (Mus musculus [3]): 0.013 mg/kg; Ki (D(2) dopamine receptor [4]): 120 nM
Oc1nc2cc(Cl)ccc2n1C1CCN(CC2COc3cc(Cl)c(Cl)cc3O2)CC1 (configuration not stated) | 6 |  | 
Oc1nc2cc(Cl)c(Cl)cc2n1C1CCN(CC2COc3ccc(F)cc3O2)CC1 (configuration not stated) | 1.4 |  | 
Oc1nc2cc(Cl)ccc2n1C1CCN(CC2COc3cc(F)ccc3O2)CC1 (configuration not stated) | 0.2 |  | 
Oc1nc2cc(F)ccc2n1C1CCN(CC2COc3ccc(Cl)cc3O2)CC1 (configuration not stated) |  |  | ED50 (Mus musculus [5]): 0.044 mg/kg
Cc1c(Cl)ccc2nc(O)n(C3CCN(CC4COc5ccccc5O4)CC3)c12 (configuration not stated) | 10 |  | 
Oc1nc2cccnc2n1C1CCN(CC2COc3ccccc3O2)CC1 (configuration not stated) | > 10 |  | 
Oc1nc2cc(F)ccc2n1C1CCN(CC2COc3cc(Cl)c(Cl)cc3O2)CC1 (configuration not stated) | 5.5 |  | 
Oc1nc2cc(Cl)ccc2n1C1CCN(CC2COc3ccc(Cl)cc3O2)CC1 (configuration not stated) | 0.75 |  | 
Oc1nc2cc(-c3ccccc3)ccc2n1C1CCN(CC2COc3ccccc3O2)CC1 (configuration not stated) | > 25 |  | 
O=C(CCCN1CCC(O)(c2ccc(Cl)cc2)CC1)c1ccc(F)cc1 [HALOPERIDOL] |  | 0.5 | ED50 (Mus musculus [6]): 0.09 mg/kg
Cc1cc2c(cc1C)OC(CN1CCC(n3c(O)nc4cc(Cl)ccc43)CC1)CO2 (configuration not stated) | 0.8 |  | 
Cc1ccc2c(c1)nc(O)n2C1CCN(CC2COc3cc(Cl)c(Cl)cc3O2)CC1 (configuration not stated) | 3.6 |  | 
Nc1ccc2c(c1)nc(O)n2C1CCN(CC2COc3ccccc3O2)CC1 (configuration not stated) | 3.9 |  | 
Oc1nc2cc(C(F)(F)F)ccc2n1C1CCN(CC2COc3ccccc3O2)CC1 (configuration not stated) | > 10 |  | 
O=c1[nH]c2cc(Cl)ccc2n1C1CCN(CC2COc3ccccc3O2)CC1 (configuration not stated) [AXAMOZIDE] |  | > 40 | selectivity ratio [2]: > 444; Ki (D(2) dopamine receptor [4]): 30 nM; ED50 (Mus musculus [7]): 0.09 mg/kg; ED50 (Mus musculus [8]): 0.21 mg/kg
CCc1ccc2c(c1)nc(O)n2C1CCN(CC2COc3ccccc3O2)CC1 (configuration not stated) | 0.17 |  | 
Cc1ccc2c(c1)OCC(CN1CCC(n3c(O)nc4cc(Cl)ccc43)CC1)O2 (configuration not stated) |  | 20 | selectivity ratio [2]: 165; Ki (D(2) dopamine receptor [4]): 60 nM; ED50 (Mus musculus [9]): 0.121 mg/kg
Oc1nc2cc(F)ccc2n1C1CCN(CC2COc3cc(F)ccc3O2)CC1 (configuration not stated) | 0.63 | < 5 | 
Cc1cc2c(cc1C)OC(CN1CCC(n3c(O)nc4cc(F)ccc43)CC1)CO2 (configuration not stated) |  | > 20 | selectivity ratio [2]: > 363; ED50 (Mus musculus [10]): 0.055 mg/kg; Ki (D(2) dopamine receptor [4]): 25 nM

Compound | ED50 [1] [mg/kg] | ED50 (Rattus norvegicus) [mg/kg] | other results
Cc1cccc2c1OCC(CN1CCC(n3c(O)nc4cc(Cl)ccc43)CC1)O2 (configuration not stated) | 1.3 |  | 
Oc1nc2cccc(Cl)c2n1C1CCN(CC2COc3ccc(F)cc3O2)CC1 (configuration not stated) | > 25 |  | 
Oc1nc2cc(F)ccc2n1C1CCN(CC2COc3ccccc3O2)CC1 (configuration not stated) |  |  | ED50 (Mus musculus [11]): 0.019 mg/kg
Oc1nc2ccc(Cl)cc2n1C1CCN(CC2COc3ccc(F)cc3O2)CC1 (configuration not stated) | 0.16 |  | 
Oc1nc2ccc(Cl)cc2n1C1CCN(CC2COc3ccccc3O2)CC1 (configuration not stated) | 0.11 |  | 
Cc1c(Cl)ccc2nc(O)n(C3CCN(CC4COc5ccc(F)cc5O4)CC3)c12 (configuration not stated) | > 25 |  | 
Oc1nc2cc(C(F)(F)F)ccc2n1C1CCN(CC2COc3ccc(F)cc3O2)CC1 (configuration not stated) | > 10 |  | 
Oc1nc2cc(Cl)ccc2n1C1CCN(CC2COc3ccc(F)cc3O2)CC1 (configuration not stated) |  |  | ED50 (Mus musculus [12]): 0.14 mg/kg
O=c1[nH]c2cc(F)ccc2n1C1CCN(CC2COc3cc(F)ccc3O2)CC1 (configuration not stated) |  |  | selectivity ratio [2]: < 8; Ki (D(2) dopamine receptor [4]): 70 nM
Cc1ccc2c(c1)nc(O)n2C1CCN(CC2COc3ccc(F)cc3O2)CC1 (configuration not stated) |  | 2.5 | selectivity ratio [2]: 187; Ki (D(2) dopamine receptor [4]): 150 nM; ED50 (Mus musculus [13]): 0.014 mg/kg
Oc1nc2cc(F)ccc2n1C1CCN(CC2COc3ccc(F)cc3O2)CC1 (configuration not stated) |  | 20 | selectivity ratio [2]: 204; ED50 (Mus musculus [14]): 0.098 mg/kg
Oc1nc2cc(Cl)c(Cl)cc2n1C1CCN(CC2COc3ccccc3O2)CC1 (configuration not stated) | 0.45 |  | 
Cc1ccc2c(c1)nc(O)n2C1CCN(CC2COc3ccc(Cl)cc3O2)CC1 (configuration not stated) | 0.093 | 1 | selectivity ratio [15]: 11; Ki (D(2) dopamine receptor [16]): 30 nM
Cc1ccc2c(c1)nc(O)n2C1CCN(CC2COc3cc(C)c(C)cc3O2)CC1 (configuration not stated) |  | 10 | ED50 (Mus musculus [17]): 0.079 mg/kg; selectivity ratio [2]: 126; Ki (D(2) dopamine receptor [4]): 45 nM
Oc1nc2cccnc2n1C1CCN(CC2COc3ccc(F)cc3O2)CC1 (configuration not stated) | > 25 |  | 
Oc1nc2cc(Br)ccc2n1C1CCN(CC2COc3ccccc3O2)CC1 (configuration not stated) |  | 20 | selectivity ratio [2]: 244; ED50 (Mus musculus [18]): 0.082 mg/kg; Ki (D(2) dopamine receptor [4]): 70 nM
CC(C)(C)c1ccc2c(c1)nc(O)n2C1CCN(CC2COc3ccccc3O2)CC1 (configuration not stated) | > 25 |  | 
Oc1nc2cccc(Cl)c2n1C1CCN(CC2COc3ccccc3O2)CC1 (configuration not stated) | > 20 |  | 
COc1ccc2c(c1)nc(O)n2C1CCN(CC2COc3ccccc3O2)CC1 (configuration not stated) |  | 1 | selectivity ratio [2]: 104; ED50 (Mus musculus [19]): 0.0096 mg/kg; Ki (D(2) dopamine receptor [4]): 150 nM
Cc1ccc2c(c1)OCC(CN1CCC(n3c(O)nc4cc(C)ccc43)CC1)O2 (configuration not stated) |  | 6 | selectivity ratio [2]: 188; Ki (D(2) dopamine receptor [4]): 40 nM; ED50 (Mus musculus [20]): 0.032 mg/kg
Cc1cccc2c1OCC(CN1CCC(n3c(O)nc4cc(F)ccc43)CC1)O2 (configuration not stated) |  | 8 | selectivity ratio [2]: 186; ED50 (Mus musculus [21]): 0.043 mg/kg; Ki (D(2) dopamine receptor [4]): 8 nM
